# Assays:
# Assay in all cases: foci formation assay
# Type in all cases: cell-based, human
# Conditions in all cases: 1 μM LGK974
# PK59 = tested on: PK59
# Method: (§1) To assay foci formation, 6,000˜12,000 cells of indicated cell lines were seeded in 6 well tissue culture plate in 2 ml growth media. After overnight culture for cell attachment, media was replaced with fresh growth media containing 1 μM LGK974 in the absence and presence of recombinant Wnt3a. For DOX-inducible β-catenin shRNA experiment, cells were treated 5 ng/ml doxycycline. When cell colonies reached desirable size, cells were fixed with 4% formalin in PBS and stained with crystal violet solution. After a few washes, plates were dried and imaged.
# (§2) Identification of pancreatic cancer lines containing inactivation mutation of RNF43. Discovery of LGK974, a potent and selective inhibitor of Porcupine, offered us a unique chemical tool to systemically examine Wnt dependency in a large panel of cancer cell lines. We tested LGK974 in a large panel of pancreatic cancer cell lines using foci formation assay. Foci formation assay was utilized because it is more sensitive than routine growth assays such as CellTiter-Glo, and it is less affected by the different growth rates of various cell lines.
# KP1-N = tested on: KP1-N
# Method: as §1, §2
# PaTu-8988S = tested on: PaTu-8988S
# Method: as §1, §2
# Pan02.03 = tested on: Pan02.03
# Method: as §1, §2
# CFPAC-1 = tested on: CFPAC-1
# Method: as §1, §2
# BXPC3 = tested on: BXPC3
# Method: as §1, §2
# PaTu-8902 = tested on: PaTu-8902
# Method: as §1, §2
# HuPT4 = tested on: HuPT4
# Method: as §1, §2
# MIA CaPa-2 = tested on: MIA CaPa-2
# Method: as §1, §2
# Capan-2 = tested on: Capan-2
# Method: as §1, §2
# KP4 = tested on: KP4
# Method: as §1, §2
# Hs766T = tested on: Hs766T
# Method: as §1, §2
# PSN-1 = tested on: PSN-1
# Method: as §1, §2
# Panc03.27 = tested on: Panc03.27
# Method: as §1, §2
# L3.3 = tested on: L3.3
# Method: as §1, §2
# PL45 = tested on: PL45
# Method: as §1, §2
# SU86.86 = tested on: SU86.86
# Method: as §1, §2
# Panc10.05 = tested on: Panc10.05
# Method: as §1, §2
# Panc05.04 = tested on: Panc05.04
# Method: as §1, §2
# HuPT3 = tested on: HuPT3
# Method: as §1, §2
# PK1 = tested on: PK1
# Method: as §1, §2
# PaTu-8988T = tested on: PaTu-8988T
# Method: as §1, §2
# Capan-1 = tested on: Capan-1
# Method: as §1, §2
# PANC-1 = tested on: PANC-1
# Method: as §1, §2
# T3M4 = tested on: T3M4
# Method: as §1, §2
# SUIT-2 = tested on: SUIT-2
# Method: as §1, §2
# SW1990 = tested on: SW1990
# Method: as §1, §2
# KP-1NL = tested on: KP-1NL
# Method: as §1, §2
# HPAFII = tested on: HPAFII
# Method: as §1, §2
# QGP-1 = tested on: QGP-1
# Method: as §1, §2
# PK45H = tested on: PK45H
# Method: as §1, §2
# KP2 = tested on: KP2
# Method: as §1, §2
# KP3 = tested on: KP3
# Method: as §1, §2
# DanG = tested on: DanG
# Method: as §1, §2
# YAPC = tested on: YAPC
# Method: as §1, §2
# Panc08.13 = tested on: Panc08.13
# Method: as §1, §2
# KCl-MOH1 = tested on: KCl-MOH1
# Method: as §1, §2
# Panc04.03 = tested on: Panc04.03
# Method: as §1, §2
smiles,measurement,setting,value
"Cc1cc(-c2ncc(CC(=O)Nc3ccc(-c4cnccn4)cn3)cc2C)ccn1 [LGK974, 2-[5-methyl-6-(2-methylpyridin-4-yl)pyridin-3-yl]-N-[5-(pyrazin-2-yl)pyridin-2-yl]acetamide]",Growth inhibition in foci formation assay,PK59,No
same,Growth inhibition in foci formation assay,KP1-N,No
same,Growth inhibition in foci formation assay,PaTu-8988S,strong growth inhibitory activity and strongly inhibited and Yes
same,Growth inhibition in foci formation assay,Pan02.03,No
same,Growth inhibition in foci formation assay,CFPAC-1,No
same,Growth inhibition in foci formation assay,BXPC3,No
same,Growth inhibition in foci formation assay,PaTu-8902,No
same,Growth inhibition in foci formation assay,HuPT4,No
same,Growth inhibition in foci formation assay,MIA CaPa-2,No
same,Growth inhibition in foci formation assay,Capan-2,strong growth inhibitory activity and strongly inhibited and Yes
same,Growth inhibition in foci formation assay,KP4,No
same,Growth inhibition in foci formation assay,Hs766T,No
same,Growth inhibition in foci formation assay,PSN-1,No
same,Growth inhibition in foci formation assay,Panc03.27,No
same,Growth inhibition in foci formation assay,L3.3,No
same,Growth inhibition in foci formation assay,PL45,not sensitive and No
same,Growth inhibition in foci formation assay,SU86.86,No
same,Growth inhibition in foci formation assay,Panc10.05,not sensitive and No
same,Growth inhibition in foci formation assay,Panc05.04,No
same,Growth inhibition in foci formation assay,HuPT3,No
same,Growth inhibition in foci formation assay,PK1,without significant effect and No
same,Growth inhibition in foci formation assay,PaTu-8988T,not sensitive and No
same,Growth inhibition in foci formation assay,Capan-1,No
same,Growth inhibition in foci formation assay,PANC-1,No
same,Growth inhibition in foci formation assay,T3M4,No
same,Growth inhibition in foci formation assay,SUIT-2,No
same,Growth inhibition in foci formation assay,SW1990,No
same,Growth inhibition in foci formation assay,KP-1NL,No
same,Growth inhibition in foci formation assay,HPAFII,strong growth inhibitory activity and strongly inhibited and Yes
same,Growth inhibition in foci formation assay,QGP-1,No
same,Growth inhibition in foci formation assay,PK45H,No
same,Growth inhibition in foci formation assay,KP2,No
same,Growth inhibition in foci formation assay,KP3,No
same,Growth inhibition in foci formation assay,DanG,No
same,Growth inhibition in foci formation assay,YAPC,without significant effect and No
same,Growth inhibition in foci formation assay,Panc08.13,No
same,Growth inhibition in foci formation assay,KCl-MOH1,No
same,Growth inhibition in foci formation assay,Panc04.03,No

# Source: US20170306409A1, “CANCER PATIENT SELECTION FOR ADMINISTRATION OF WNT SIGNALING INHIBITORS USING RNF43 MUTATION STATUS” (NOVARTIS AG, priority 2012, published 2017)
